Values after ≈ are worked out from the molar mass of the structure shown.
test system: Mycobacterium tuberculosis variant bovis BCG; experiment: microbe, parasite or virus in culture; type: functional

| Compound | MIC90 [µM] |
| --- | --- |
| O=C(Nc1nc(-c2ccccn2)cs1)c1ccc(-n2cccn2)cc1 | 0.7 (≈ 0.243 µg/mL) |
| CCOc1ccc(C(=O)Nc2ccc3c(c2)C(C)N(C)CC3)cc1Br (stereo unspecified) | 4 (≈ 1.61 µg/mL) |
| Cc1ccc2c(NC(=O)Nc3ccc(N(C)C)cc3)cc(C)nc2c1 | 5.8 (≈ 1.94 µg/mL) |
| COc1ccc(-c2ccc(Nc3cccc(S(=O)(=O)CCNC4CCC4)c3)nc2)cn1 | 1.6 (≈ 0.702 µg/mL) |
| O=C(c1cc2ccccc2o1)N1CCN(Cc2ccc3c(c2)OCO3)CC1 | 2.7 (≈ 0.984 µg/mL) |
| FC(F)(F)c1cc(N2CCCNCC2)c2ccccc2n1 | 4.7 (≈ 1.39 µg/mL) |
| CS(=O)(=O)N1CCN(c2ccccc2NC(=O)C(Cl)(Cl)Cl)CC1 | 3.9 (≈ 1.56 µg/mL) |
| c1ccc(-c2nnc(Sc3ccnc(N4CCN(c5ccncc5)CC4)n3)n2CCN2CCOCC2)cc1 | 4.2 (≈ 2.22 µg/mL) |
| Cc1ccc(-n2ncc3c(N4CCCNCC4)nc(C4CC4)nc32)cc1 | 3.9 (≈ 1.36 µg/mL) |
| COc1ccc(-c2ccc(Nc3cccc(S(=O)(=O)CCNCCn4nc(C)cc4C)c3)nc2)cn1 | 6.9 (≈ 3.5 µg/mL) |
| N=C(Nc1nc(-c2ccccn2)cc2ccccc12)c1cccc(Cl)c1 | 0.6 (≈ 0.215 µg/mL) |
| O=C(COc1ccc(F)cc1Cl)Nc1nc(-c2ccccn2)cs1 | 3.9 (≈ 1.42 µg/mL) |
| Cc1ccc(Cl)cc1Oc1ccncc1CNc1ccccc1S(C)(=O)=O | 7.1 (≈ 2.86 µg/mL) |
| O=C(Nc1nc(CN2CCCCC2)cs1)c1ccccc1OCc1ccc(F)cc1 | 6.2 (≈ 2.64 µg/mL) |
| FC(F)(F)c1ccc2c(N3CCCNCC3)ncc(-c3ccsc3)c2n1 | 1.8 (≈ 0.681 µg/mL) |
| Cc1c(C(=O)[C@@H]2C[C@H]2CN(Cc2ccccn2)Cc2ccccn2)sc2ccccc12 | 7.1 (≈ 3.04 µg/mL) |
| Cc1ccc2nc(Cl)c(CNCc3cccs3)cc2c1 | 7.2 (≈ 2.18 µg/mL) |
| COc1ccc(-c2ccc(Nc3cccc(S(=O)(=O)CCNCC4CC4)c3)nc2)cn1 | 5.6 (≈ 2.46 µg/mL) |
| CS(=O)(=O)c1oc(-c2cccs2)nc1S(=O)(=O)c1ccc(F)cc1 | 6.9 (≈ 2.67 µg/mL) |

| Compound | MIC90 [µM] |
| --- | --- |
| COCc1nc(N2CCNCC2)c2c(C)nn(-c3cccc(Cl)c3)c2n1 | 1.9 (≈ 0.708 µg/mL) |
| O=C(C=Cc1ccccc1)Nc1nc(-c2ccccn2)cs1 | 3.3 (≈ 1.01 µg/mL) |
| COc1ccc(NC(=O)c2ccc(CN3CCCCC3)o2)c(OC)c1 | 7.2 (≈ 2.48 µg/mL) |
| COc1ccc(CCNC(=O)c2cc(-c3ccc(OC)c(OC)c3)on2)cc1OC | 4.2 (≈ 1.73 µg/mL) |
| Cc1ccc2nc(C)c(C(=O)NCc3cccs3)n2c1 | 0.5 (≈ 0.143 µg/mL) |
| N#Cc1ccc2c(c1)CCN(CCCSc1ccnc3cc(C(F)(F)F)ccc13)CC2 | 3.2 (≈ 1.41 µg/mL) |
| CCN(Cc1ccc(Cl)s1)C(=O)CSc1nc(NC)c2ccccc2n1 | 9.1 (≈ 3.7 µg/mL) |
| Cc1cc(NCCc2ccccc2)nc(NC(=N)Nc2ccc(Cl)cc2)n1 | 2 (≈ 0.762 µg/mL) |
| Cc1ccc(C)c(-c2nnc(NC(=O)c3ccc4c(c3)CCCC4)o2)c1 | 3 (≈ 1.04 µg/mL) |
| Cc1cc(C(=O)Nc2nc(-c3ccccn3)nc3ccsc23)no1 | 2.8 (≈ 0.945 µg/mL) |
| Nc1nc2cc(-c3cncc(Oc4ccc(F)cc4)c3)ccc2[nH]1.O=C(O)C(F)(F)F.O=C(O)C(F)(F)F | 6.2 |
| COc1cc(CN2CCC3(C=Cc4ccccc43)CC2)cc2c1OCO2 | 3.1 (≈ 1.08 µg/mL) |
| COc1ccc(-c2ccc(Nc3cccc(S(=O)(=O)CCNCc4nccn4C)c3)nc2)cn1 | 4.3 (≈ 2.06 µg/mL) |
| CN(Cc1nc2ccccc2s1)C(=O)c1ccc2c(c1)CC(c1ccccc1)OC2=O (stereo unspecified) | 4.7 (≈ 2.01 µg/mL) |
| Cc1cc(C)c2cc(C#N)c(N3CCCNCC3)nc2c1 | 4.3 (≈ 1.21 µg/mL) |
| Cc1ccc(N2C(=O)NC(=O)C(=Cc3ccc[nH]3)C2=O)cc1 | 8.8 (≈ 2.6 µg/mL) |
| CCN(CC)c1ccc(-c2nn3c(-c4n[nH]c5c4CCC5)nnc3s2)cc1 | 7 (≈ 2.66 µg/mL) |
| CCN(CC)CCCn1c(Sc2ccnc(N3CCN(c4ccncc4)CC3)n2)nnc1-c1ccco1 | 2.8 (≈ 1.46 µg/mL) |
| Cc1cc(S(=O)(=O)c2ccccc2)cc2c(Nc3ccc(N4CCOCC4)cc3)c(C(N)=O)cnc12 | 8.8 (≈ 4.42 µg/mL) |

| Compound | MIC90 [µM] |
| --- | --- |
| CC(C)(C)C(=O)CC1(O)Oc2ccccc2N=C1C=C(O)C(C)(C)C (stereo unspecified) | 5.3 (≈ 1.83 µg/mL) |
| O=C(Nc1cccc(C(=O)N2CCCC2c2nc3ccccc3s2)c1)c1cccs1 (stereo unspecified) | 6.9 (≈ 2.99 µg/mL) |
| O=C(Nc1nnc(-c2ccc(Cl)cc2)o1)c1cccc(C(F)(F)F)c1 | 5.3 (≈ 1.95 µg/mL) |
| NC(=O)c1cccc(-c2ccc(OCCCN3CC[C@@H](OCc4ccccc4)C3)cc2)c1 | 7.5 (≈ 3.23 µg/mL) |
| CC1(C(=O)Nc2cccc3cccnc23)CCN1CC1CC1 (stereo unspecified) | 4.6 (≈ 1.36 µg/mL) |
| O=C(NNC(=O)c1ccc([N+](=O)[O-])o1)c1ccc2ccccc2c1 | 7.2 (≈ 2.34 µg/mL) |
| c1ccc(CNc2ncc(-c3ccc(CNCC4CCCO4)cc3)cn2)cc1 (stereo unspecified) | 8.8 (≈ 3.3 µg/mL) |
| C=CCNCCS(=O)(=O)c1cccc(Nc2ncc(-c3cccc(F)c3)cn2)c1 | 9.6 (≈ 3.96 µg/mL) |
| COc1ccc(-c2ccc(Nc3cccc(S(=O)(=O)CCNCC4CCCO4)c3)nc2)cn1 (stereo unspecified) | 7 (≈ 3.28 µg/mL) |
| CC(=O)Oc1ccc(Cn2cc(C(=O)NCc3ccccc3)sc2=O)cc1 | 6.9 (≈ 2.64 µg/mL) |
| CCc1c(C)nc(-n2nc(C)cc2NC(=O)c2ccc(OC)cc2OC)[nH]c1=O | 1.2 (≈ 0.477 µg/mL) |
| O=C(Nc1nnc(-c2ccccc2)o1)c1cccc(C(F)(F)F)c1 | 3.6 (≈ 1.2 µg/mL) |
| c1ccc(-n2ncc3c(N4CCCNCC4)nc(C4CC4)nc32)cc1 | 4.1 (≈ 1.37 µg/mL) |
| COc1ccc(-c2nc(C(=O)N3CCCCC3c3nc4ccccc4s3)cs2)cc1 (stereo unspecified) | 4.8 (≈ 2.09 µg/mL) |
| CCCCOc1ccc(C(=O)Nc2nc(-c3ccccn3)cs2)cc1 | 1.6 (≈ 0.566 µg/mL) |
| O=S(=O)(CCNCC1CC1)c1cccc(Nc2ccc(-c3cccc(F)c3)cn2)c1 | 5.3 (≈ 2.26 µg/mL) |
| C=CCNCCS(=O)(=O)c1cccc(Nc2ncc(-c3ccc(OC)nc3)cn2)c1 | 3.6 (≈ 1.53 µg/mL) |
| CCS(=O)(=O)c1ccc(C(=O)Nc2nc(-c3ccccn3)cs2)cc1 | 3.7 (≈ 1.38 µg/mL) |

Source: ChEMBL document CHEMBL2095176, “GSK Tuberculosis Screening Data”
